Laboratory results from US20220362386A1, “LIQUID COMPOSITIONS COMPRISING A LEVODOPA AMINO ACID CONJUGATE AND USES THEREOF” (NeuroDerm, Ltd., priority 2019, published 2022).
Structures can show the parent of a compound that is named as a salt. Where two headings read alike, the source gives them in different places. Non-standard residues stand in square brackets, D forms with d. Residues, ends and D or L forms follow the SMILES beside them. Dopa = N[C@@H](Cc1ccc(O)c(O)c1)C(=O)O

Experiments:
[1] = In-vitro metabolism of LDAA compounds using liver microsomes; format: in vitro ADME, human; conditions: for half-life at 0.1 μM / microsomal CLint at 0.1 μM: both sexes, human, pooled human liver microsomes; for half-life at 0.1 μM: pH 7.4, 1.0E−07M, 0.1 mg/mL microsomal protein; for microsomal CLint at 0.1 μM: pH 7.4, calculated from the half-life; for microsomal CLint at 0.1 μM / % Compound Remaining 1st / % Compound Remaining 2nd / % Compound Remaining Mean: 1.0E−07M
Method: The stability of test compounds in pooled human liver microsomes was determined on 96-well plates, wherein the test compounds were quantified at five time points by HPLC-MS/MS analysis. The assay matrix included mixed gender and a pool of 50 human liver microsomes, wherein the final microsomal protein concentration was 0.1 mg/mL. The test concentration was 0.1 μM with 0.01% DMSO, 0.25% acetonitrile and 0.25% methanol.
Each test compound was pre-incubated for five minutes with pooled liver microsomes in phosphate buffer (pH 7.4) in a 37° C. shaking water-bath. The reaction was initiated by adding a nicotinamide adenine dinucleotide phosphate (NADPH)-generating system and incubating for 0, 15, 30, 45, and 60 min. The reaction was stopped by transferring the incubation mixture to acetonitrile/methanol. Samples were then mixed and centrifuged, wherein the supernatants were used for HPLC-MS/MS analysis.
In each assay the four reference compounds propranolol, imipramine, verapamil and terfenadine were tested, wherein the propranolol and the imipramine are known to be relatively stable, while the verapamil and the terfenadine are known to be readily metabolized in human liver microsomes.
All samples were analyzed by HPLC-MS/MS using selected reaction monitoring. The HPLC system consisted of a binary LC pump with autosampler, a C-18 column, and a gradient. The conditions were adjusted when necessary.
Peak areas corresponding to the test compound were recorded. The amount of each compound remaining was calculated by comparing the peak area at each time point to time zero. The half-life is calculated from the slope of the initial linear range of the logarithmic curve of compound remaining (%) vs. time, assuming first order kinetics. In addition, the intrinsic clearance (Clint) was calculated from the half-life using the following equation:
Clint(μL/min/mg protein)=0.693/(t1/2×protein concentration)
The results of the in-vitro human liver microsome metabolism tests of various LDAA compounds (10^−7M), in their TFA salt forms, are provided in FIG. 1 and in Table 17, which presents the % of the compound remaining at times 0, 15, 30, 45 and 60 minutes, two half-life measurements and the Clint, calculated as detailed above.

[2] = Human blood stability test; format: in vitro ADME; parameters: key: slope of % decrease of remaining compound over time; higher = faster metabolism; conditions: slope of the percentage decrease of remaining compound; substrate 10 μM; 0-60 minutes
Method: The stability of several LDAA compounds in human blood was tested. The substrate concentration was 10 μM and the incubation time 0, 5, 15, 30 and 60 minutes.
The results are described in Table 19, wherein the results describe the Ke, i.e., the slope of the percentage decrease of the remaining amount of the compound, measured at each of the above time points, such that the higher the Ke the faster the metabolism.

[3] = In-vitro absorption, Caco-2 A-B permeability; format: in vitro ADME, human; conditions: human, Caco-2, pH 7.4, Caco-2 A-B, without verapamil; for Papp A→B at 60 min, 10 μM: 1.0E−05M
Method: (§1) Conditions may be adjusted when necessary.
(§2) D denotes donor and R is receiver. […] V is the volume of the donor or receiver.
(§3) The test was performed with and without verapamil, which is a permeation inhibitor, and the results are presented in Tables 22 (without verapamil) and 34 (with verapamil).

P-gp = assay: In-vitro absorption, Caco-2 A-B permeability; format: in vitro ADME, human; conditions: human, Caco-2, pH 7.4, with verapamil 100 μM on both the A and B sides, Caco-2 A-B, in the presence of verapamil
Method: as §1, §2, §3

in vitro = conditions: human
Method: Caco-2 cells are human intestinal epithelial cells derived from a colorectal adenocarcinoma.
The assays are performed in both the apical to basolateral (A-B) and the B-A direction. The test compound is prepared at 10 μM in HBSS-HEPES (pH 7.4) with a final DMSO concentration of 1%. The working solution is centrifuged, and the supernatant is added to the donor side. The assay plate is incubated at 37° C. with gentle shaking for 60 min or 40 min for the A-B or B-A assay, respectively. For Pgp substrate assessment, the assays are run with and without 100 μM verapamil on both the A and B sides. For BCRP substrate assessment, the assays are run with and without 10 μM Ko143 on both the A and B sides. For MRP2 substrate assessment, the assays are run with and without 100 μM MK571 on both the A and B sides. Samples are aliquoted from the donor side at time zero and the end point, and from the receiver side at the end point.
Propranolol (highly permeable), labetalol (moderately permeable), ranitidine (poorly permeable), and colchicine (P-glycoprotein substrate), estrone-3-sulfate (BCRP substrate), or CDCF (MRP2 substrate) are included in each assay.
Samples are analyzed by HPLC-MS/MS using selected reaction monitoring. The HPLC system consists of a binary LC pump with an autosampler, a C-18 column, and a gradient. Conditions may be adjusted when necessary.
Fluorescein permeability is assessed in the A-B direction at pH 7.4 on both sides after the permeability assay with the test compound. The cell monolayer with a fluorescein permeability of less than 1.5×10−6 cm/s is considered intact.
The apparent permeability coefficient (Papp) of the test compound and its recovery are calculated as follows: […]
A is the surface area of the cell monolayer (0.11 cm^2). C is concentration of the test compound, expressed as peak area. D denotes donor and R is receiver. 0, mid, and end denote time zero, mid-point, and end of the incubation. Δt is the incubation time. V is the volume of the donor or receiver.
The permeability capabilities of the several LDAA compounds, in their TFA salt form, were determined using the Caco-2 B-A method.

[4] = read-out: Half-Life (minute) 1st
[5] = read-out: Half-Life (minute) 2nd
[6] = read-out: Half-Life (minute) Mean
[7] = read-out: Percent Recovery Mean
[8] = Caco-2, pH 7.4, Percent Recovery 1st
[9] = Caco-2, pH 7.4, Percent Recovery 2nd
[10] = Caco-2, pH 7.4, Percent Recovery Mean
[11] = Caco-2, pH 7.4, Permeability 1st
[12] = Caco-2, pH 7.4, Permeability 2nd
[13] = Caco-2, pH 7.4, Permeability Mean

NCCCC[C@H](NC(=O)[C@@H](N)Cc1ccc(O)c(O)c1)C(=O)O [LD-Lys TFA salt, Levodopa Lysine TFA Salt] (H-[Dopa]-Lys-OH)
half-life at 0.1 μM [1, 4]: 91.3 min | half-life at 0.1 μM [1, 5]: 58.3 min | half-life at 0.1 μM [1, 6]: > 60 min | microsomal CLint at 0.1 μM [1]: < 116 µL/min/mg | % Compound Remaining 1st ([1]; incubation time 0 minutes): 100% | % Compound Remaining 2nd ([1]; incubation time 0 minutes): 100% | % Compound Remaining Mean ([1]; incubation time 0 minutes): 100% | % Compound Remaining 1st ([1]; incubation time 15 minutes): {123.5% | % Compound Remaining 2nd ([1]; incubation time 15 minutes): 96.7% | % Compound Remaining Mean ([1]; incubation time 15 minutes): 97% | % Compound Remaining 1st ([1]; incubation time 30 minutes): 64.2% | % Compound Remaining 2nd ([1]; incubation time 30 minutes): 83.5% | % Compound Remaining Mean ([1]; incubation time 30 minutes): 74% | % Compound Remaining 1st ([1]; incubation time 45 minutes): 76.7% | % Compound Remaining 2nd ([1]; incubation time 45 minutes): {43.7} % | % Compound Remaining Mean ([1]; incubation time 45 minutes): 77% | % Compound Remaining 1st ([1]; incubation time 60 minutes): 59.5% | % Compound Remaining 2nd ([1]; incubation time 60 minutes): 50.4% | % Compound Remaining Mean ([1]; incubation time 60 minutes): 55% | Ke [2]: 0.0655 | Papp A→B at 60 min, 10 μM ([3]; read-out: Permeability 1st): 0.12 ×10⁻⁶ cm/s | Papp A→B at 60 min, 10 μM ([3]; read-out: Permeability 2nd): 0.09 ×10⁻⁶ cm/s | Papp A→B at 60 min, 10 μM ([3]; read-out: Permeability Mean): < 0.1 ×10⁻⁶ cm/s | recovery at 60 min, 10 μM ([3]; read-out: Percent Recovery 1st): 21% | recovery at 60 min, 10 μM ([3]; read-out: Percent Recovery 2nd): 38% | recovery at 60 min, 10 μM [3, 7]: 30% | recovery at 60 min, 10 μM (P-gp; read-out: Percent Recovery 1st): 33% | recovery at 60 min, 10 μM (P-gp; read-out: Percent Recovery 2nd): 33% | recovery at 60 min, 10 μM (P-gp; [7]): 33% | recovery at 40 min, 10 μM (in vitro; [8]): 79% | recovery at 40 min, 10 μM (in vitro; [9]): 86% | recovery at 40 min, 10 μM (in vitro; [10]): 82% | Papp B→A at 40 min, 10 μM (in vitro; [11]): 0.03 ×10⁻⁶ cm/s | Papp B→A at 40 min, 10 μM (in vitro; [12]): 0.03 ×10⁻⁶ cm/s | Papp B→A at 40 min, 10 μM (in vitro; [13]): < 0.03 ×10⁻⁶ cm/s

NC(=O)C[C@H](NC(=O)[C@@H](N)Cc1ccc(O)c(O)c1)C(=O)O [LD-Asn TFA salt, Levodopa Asparagine TFA Salt] (H-[Dopa]-Asn-OH)
half-life at 0.1 μM [1, 4]: 74.4 min | half-life at 0.1 μM [1, 5]: 77.3 min | half-life at 0.1 μM [1, 6]: > 60 min | microsomal CLint at 0.1 μM [1]: < 116 µL/min/mg | % Compound Remaining 1st ([1]; incubation time 0 minutes): 100% | % Compound Remaining 2nd ([1]; incubation time 0 minutes): 100% | % Compound Remaining Mean ([1]; incubation time 0 minutes): 100% | % Compound Remaining 1st ([1]; incubation time 15 minutes): 92.8% | % Compound Remaining 2nd ([1]; incubation time 15 minutes): 96.4% | % Compound Remaining Mean ([1]; incubation time 15 minutes): 95% | % Compound Remaining 1st ([1]; incubation time 30 minutes): 79.9% | % Compound Remaining 2nd ([1]; incubation time 30 minutes): 88.6% | % Compound Remaining Mean ([1]; incubation time 30 minutes): 84% | % Compound Remaining 1st ([1]; incubation time 45 minutes): 66.1% | % Compound Remaining 2nd ([1]; incubation time 45 minutes): 59.7% | % Compound Remaining Mean ([1]; incubation time 45 minutes): 63% | % Compound Remaining 1st ([1]; incubation time 60 minutes): 58.9% | % Compound Remaining 2nd ([1]; incubation time 60 minutes): 64.9% | % Compound Remaining Mean ([1]; incubation time 60 minutes): 62% | Ke [2]: 0.0038 | Papp A→B at 60 min, 10 μM ([3]; read-out: Permeability 1st): 0.6 ×10⁻⁶ cm/s | Papp A→B at 60 min, 10 μM ([3]; read-out: Permeability 2nd): 0.47 ×10⁻⁶ cm/s | Papp A→B at 60 min, 10 μM ([3]; read-out: Permeability Mean): 0.5 ×10⁻⁶ cm/s | recovery at 60 min, 10 μM ([3]; read-out: Percent Recovery 1st): 62% | recovery at 60 min, 10 μM ([3]; read-out: Percent Recovery 2nd): 78% | recovery at 60 min, 10 μM [3, 7]: 70% | recovery at 60 min, 10 μM (P-gp; read-out: Percent Recovery 1st): 65% | recovery at 60 min, 10 μM (P-gp; read-out: Percent Recovery 2nd): 62% | recovery at 60 min, 10 μM (P-gp; [7]): 63% | recovery at 40 min, 10 μM (in vitro; [8]): 85% | recovery at 40 min, 10 μM (in vitro; [9]): 84% | recovery at 40 min, 10 μM (in vitro; [10]): 85% | Papp B→A at 40 min, 10 μM (in vitro; [11]): 0.42 ×10⁻⁶ cm/s | Papp B→A at 40 min, 10 μM (in vitro; [12]): 0.39 ×10⁻⁶ cm/s | Papp B→A at 40 min, 10 μM (in vitro; [13]): 0.4 ×10⁻⁶ cm/s
